Measured values published in patent US8193189B2, “Quinoxaline derivatives as tyrosine kinase activity inhibitors” (Novartis AG, priority 2007, dated 2012).

Experiments:
[1] = molecular target: T1, GST-JAK1(866-1154) (Homo sapiens, UniProt P23458); assay: EPK JAK-family kinases profiling assay (Caliper mobility shift), JAK1; assay type: biochemical; conditions: ATP 40 μM, 50 nM kinase
T1 construct: GST-JAK1(866-1154); made in house
Outline: (§1)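 Turnover was read as substrate/product ratio after mobility-shift capillary-like separation of each reaction, run for 60 min at 30 °C with GST-tagged kinase domain, labelled peptide and ATP, and terminated with EDTA stop buffer.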

[2] = molecular target: T2, GST-JAK3(811-1124) (Homo sapiens, UniProt P52333); assay: EPK JAK-family kinases profiling assay (Caliper mobility shift), JAK3; assay type: biochemical; conditions: ATP 80 μM, 6 nM kinase
T2 construct: GST-JAK3(811-1124); made in house
T2 sequence (P52333 811-1124): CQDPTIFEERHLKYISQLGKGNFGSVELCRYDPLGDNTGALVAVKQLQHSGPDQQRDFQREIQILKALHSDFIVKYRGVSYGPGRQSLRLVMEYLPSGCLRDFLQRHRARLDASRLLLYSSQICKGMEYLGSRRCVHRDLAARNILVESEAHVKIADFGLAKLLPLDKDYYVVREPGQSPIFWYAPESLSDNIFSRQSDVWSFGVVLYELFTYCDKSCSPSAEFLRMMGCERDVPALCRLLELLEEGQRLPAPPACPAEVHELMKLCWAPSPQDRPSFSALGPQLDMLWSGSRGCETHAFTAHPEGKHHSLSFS
Outline: as §1

[3] = molecular target: T3, GST-JAK2(808-1132) (Homo sapiens, UniProt O60674); assay: EPK JAK-family kinases profiling assay (Caliper mobility shift), JAK2; assay type: biochemical; conditions: ATP 20 μM, 1.8 nM kinase
T3 construct: GST-JAK2(808-1132); purchased Invitrogen (Carlsbad, USA) #4288
T3 sequence (O60674 808-1132): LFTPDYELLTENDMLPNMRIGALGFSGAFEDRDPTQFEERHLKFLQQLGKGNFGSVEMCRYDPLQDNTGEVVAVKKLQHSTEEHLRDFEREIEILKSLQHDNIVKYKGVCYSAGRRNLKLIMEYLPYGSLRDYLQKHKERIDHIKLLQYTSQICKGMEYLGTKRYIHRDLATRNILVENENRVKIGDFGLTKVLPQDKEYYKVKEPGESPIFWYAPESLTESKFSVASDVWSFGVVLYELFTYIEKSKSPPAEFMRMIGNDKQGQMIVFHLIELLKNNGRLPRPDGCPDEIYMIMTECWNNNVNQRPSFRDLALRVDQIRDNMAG
Outline: as §1

[4] = molecular target: T4, GST-TYK2(888-1187) (Homo sapiens, UniProt P29597); assay: EPK JAK-family kinases profiling assay (Caliper mobility shift), TYK2; assay type: biochemical; conditions: ATP 30 μM, 40 nM kinase
T4 construct: GST-TYK2(888-1187); made in house
T4 sequence (P29597 888-1187): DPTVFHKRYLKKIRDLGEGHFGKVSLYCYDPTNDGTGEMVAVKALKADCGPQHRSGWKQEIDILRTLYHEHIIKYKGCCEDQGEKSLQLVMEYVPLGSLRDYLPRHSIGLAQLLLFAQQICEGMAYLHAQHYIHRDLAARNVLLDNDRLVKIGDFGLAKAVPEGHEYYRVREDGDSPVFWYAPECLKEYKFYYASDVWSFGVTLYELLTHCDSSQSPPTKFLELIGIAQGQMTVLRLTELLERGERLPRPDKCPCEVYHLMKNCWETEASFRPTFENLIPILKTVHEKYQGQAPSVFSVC
Source text: All four kinases of the JAK-family kinases were used as purified recombinant GST-fusion proteins, containing the active kinase domains. GST-JAK1(866-1154), GST-JAK3(811-1124), and GST-TYK2(888-1187) were expressed and purified by affinity chromatography at the EPK biology unit. GST-JAK2(808-1132) was purchased from Invitrogen (Carlsbad, USA, #4288).
The kinase assays were based on the Caliper mobility shift assay using the LabChip 3000 systems. This technology is similar to capillary electrophoresis and uses charge driven separation of substrate and product in a microfluidic chip.
All kinase reactions were performed in 384 well microtiter plates in a total reaction volume of 18 μl. The assay plates were prepared with 0.1 μl per well of test compound in the appropriate test concentration, as described under the section “preparation of compound dilutions”. The reactions were started by combining 9 μl of substrate mix (consisting of peptide and ATP) with 9 μl of kinase dilution. The reactions were incubated for 60 minutes at 30° C. and stopped by adding 70 μl of stop buffer (100 mM Hepes, 5% DMSO, 0.1% Coating reagent, 10 mM EDTA, 0.015% Brij 35).
Fluorescently labeled synthetic peptides were used as substrates in all reactions. […] Specific assay conditions are described in Table 1:
The terminated reactions were transferred to the Caliper LabChip 3000 reader and the turnover of each reaction was measured by determining the substrate/product ratio.
Test compounds were dissolved in DMSO (10 mM) and transferred into 1.4 mL flat bottom or V-shaped Matrix tubes carrying a unique 2D matrix chip by individual compound hubs. The numbers of these chips were distinctively linked to the individual compound identification numbers. The stock solutions were stored at −20° C. if not used immediately. For the test procedure the vials were defrosted and identified by a scanner whereby a working sheet was generated that guided the subsequent working steps.
Compound dilutions were made in 96 well plates. This format enabled the assay of maximally 40 individual test compounds at 8 concentrations (single points) including 4 reference compounds. The dilution protocol included the production of pre-dilution plates, master plates and assay plates:
Pre-dilution plates: 96 polypropylene well plates were used as pre-dilution plates. A total of 4 pre-dilution plates were prepared including 10 test compounds each on the plate positions A1-A10, one standard compound at A11 and one DMSO control at A12. All dilution steps were done on a HamiltonSTAR robot.
Master plates: 100 μL of individual compound dilutions including standard compound and controls of the 4 “pre-dilution plates” were transferred into a 384 “master plate” including the following concentrations 1′820, 564, 182, 54.6, 18.2, 5.46, 1.82 and 0.546 μM, respectively in 90% of DMSO.
Assay plates: Identical assay plates were then prepared by pipetting 100 nL each of compound dilutions of the master plates into 384-well “assay plates”. […] The preparation of the master plates were handled by the Matrix PlateMate Plus robot and replication of assay plates by the HummingBird robot.

[5] = tested on: JAK/STAT pathway (JAK1/JAK2-dependent nuclear translocation of STAT1-GFP); assay: Inhibition of the JAK/STAT pathway: IFN-γ stimulated nuclear translocation of STAT1-GFP in HT1080 fibrosarcoma cells; assay type: cell-based; conditions: Homo sapiens, HT-1080; HT1080 STAT1-GFP cells, 100 ng/ml IFN-γ 2 hours, compound added 30 min before; read-out: STAT1translo IC50
Outline: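 Readout is the nuclear-minus-cytoplasmic GFP-STAT1 intensity, imaged at 10× using Hoechst-defined nuclear masks over at least 1000 cells/well. Stably transfected HT1080 fibrosarcoma cells were pretreated 30 min with compound (final 0.003–10 μM, 0.1% DMSO) before IFN-γ challenge.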

T1 sequence (P23458 866-1154): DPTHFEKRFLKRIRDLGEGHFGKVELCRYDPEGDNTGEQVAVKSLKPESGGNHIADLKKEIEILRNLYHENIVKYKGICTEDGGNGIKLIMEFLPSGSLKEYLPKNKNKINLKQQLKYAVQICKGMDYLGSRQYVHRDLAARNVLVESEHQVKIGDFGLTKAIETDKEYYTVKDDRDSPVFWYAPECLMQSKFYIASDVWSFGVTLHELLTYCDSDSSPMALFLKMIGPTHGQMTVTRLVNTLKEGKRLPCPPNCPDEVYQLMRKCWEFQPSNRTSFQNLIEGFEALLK

SMILES	IC50 [1]	IC50 [2]	IC50 [3]	IC50 [4]	IC50 [5]
Cc1cc(-c2cnc3cccc(-c4cc(F)c(CN5CCOCC5)c(F)c4)c3n2)ccc1C(=O)N1CCC(N(C)C)CC1 [Example 101, {4-[8-(3,5-Difluoro-4-morpholin-4-ylmethyl-phenyl)-quinoxalin-2-yl]-2-methyl-phenyl}-(4-dimethylamino-piperidin-1-yl)-methanone]	575 nM	1020 nM	14 nM	1450 nM	–
Fc1cc(-c2cccc3ncc(-c4cnn(C5CNC5)c4)nc23)cc(F)c1CN1CCOCC1 [Example 116, 2-(1-Azetidin-3-yl-1H-pyrazol-4-yl)-8-(3,5-difluoro-4-morpholin-4-ylmethyl-phenyl)-quinoxaline]	243 nM	2900 nM	8 nM	437 nM	–
COCCOC(=O)N1CCC(n2cc(-c3cnc4cccc(-c5cc(F)c(CN6CCOCC6)c(F)c5)c4n3)cn2)CC1 [Example 122, 4-{4-[8-(3,5-Difluoro-4-morpholin-4-ylmethyl-phenyl)-quinoxalin-2-yl]-pyrazol-1-yl}-piperidine-1-carboxylic acid 2-methoxy-ethyl ester]	475 nM	3250 nM	9.35 nM	540 nM	–
Cc1nn(C2CCNCC2)cc1-c1cnc2cccc(-c3cc(F)c(CN4CCOCC4)c(F)c3)c2n1 [Example 127, 8-(3,5-Difluoro-4-morpholin-4-ylmethyl-phenyl)-2-(3-methyl-1-piperidin-4-yl-1H-pyrazol-4-yl)-quinoxaline]	66 nM	–	< 3 nM	38 nM	86 nM
Fc1cc(-c2cccc3ncc(-c4cnn(C5CCN(C6CC6)CC5)c4)nc23)cc(F)c1CN1CCOCC1 [Example 128, 2-[1-(1-Cyclopropyl-piperidin-4-yl)-1H-pyrazol-4-yl]-8-(3,5-difluoro-4-morpholin-4-ylmethyl-phenyl)-quinoxaline]	130 nM	–	< 3 nM	160 nM	196 nM
O=C(C1CC1)N1CCC(n2cc(-c3cnc4cccc(-c5cc(F)c(CN6CCOCC6)c(F)c5)c4n3)cn2)CC1 [Example 129, Cyclopropyl-(4-{4-[8-(3,5-difluoro-4-morpholin-4-ylmethyl-phenyl)-quinoxalin-2-yl]-pyrazol-1-yl}-piperidin-1-yl)-methanone]	78 nM	–	< 3 nM	96 nM	162 nM
COC(=O)N1CCC(n2cc(-c3cnc4cccc(-c5cc(F)c(CN6CCOCC6)c(F)c5)c4n3)cn2)CC1 [Example 130, 4-{4-[8-(3,5-Difluoro-4-morpholin-4-ylmethyl-phenyl)-quinoxalin-2-yl]-pyrazol-1-yl}-piperidine-1-carboxylic acid methyl ester]	150 nM	–	3.4 nM	200 nM	163 nM
Cc1nn(C2CCN(C(=O)C(C)C)CC2)cc1-c1cnc2cccc(-c3cc(F)c(CN4CCOCC4)c(F)c3)c2n1 [Example 131, 1-(4-{4-[8-(3,5-Difluoro-4-morpholin-4-ylmethyl-phenyl)-quinoxalin-2-yl]-3-methyl-pyrazol-1-yl}-piperidin-1-yl)-2-methyl-propan-1-one]	50 nM	–	< 3 nM	33 nM	90 nM
Fc1cc(-c2cccc3ncc(-c4cnn(CC5CCNCC5)c4)nc23)cc(F)c1CN1CCOCC1 [Example 133, 8-(3,5-Difluoro-4-morpholin-4-ylmethyl-phenyl)-2-(1-piperidin-4-ylmethyl-1H-pyrazol-4-yl)-quinoxaline]	550 nM	–	5.4 nM	750 nM	840 nM
CC(C)(C)OC(=O)N1CCC(n2cc(-c3cnc4cccc(-c5cc(F)c(CN6CCOCC6)c(F)c5)c4n3)cn2)CC1 [Example 136, 4-{4-[8-(3,5-Difluoro-4-morpholin-4-ylmethyl-phenyl)-quinoxalin-2-yl]-pyrazol-1-yl}-piperidine-1-carboxylic acid tert-butyl ester]	290 nM	–	4.6 nM	260 nM	532 nM
CS(=O)(=O)c1ccc(-c2cccc3ncc(-c4cnn(C5CCNCC5)c4)nc23)cc1 [Example 144, 8-(4-Methanesulfonyl-phenyl)-2-(1-piperidin-4-yl-1H-pyrazol-4-yl)-quinoxaline]	960 nM	–	25 nM	970 nM	7660 nM
Fc1cc(-c2cccc3ncc(-c4cnn(C5CCNCC5)c4)nc23)ccc1CN1CCOCC1 [Example 145, 8-(3-Fluoro-4-morpholin-4-ylmethyl-phenyl)-2-(1-piperidin-4-yl-1H-pyrazol-4-yl)-quinoxaline]	250 nM	–	10 nM	300 nM	685 nM
Cc1cc(-c2cccc3ncc(-c4cnn(C5CCNCC5)c4)nc23)ccc1CN1CCOCC1 [Example 146, 8-(3-Methyl-4-morpholin-4-ylmethyl-phenyl)-2-(1-piperidin-4-yl-1H-pyrazol-4-yl)-quinoxaline]	840 nM	–	9.2 nM	570 nM	3390 nM
O=S1(=O)CCN(Cc2ccc(-c3cccc4ncc(-c5cnn(C6CCNCC6)c5)nc34)cc2)CC1 [Example 148, 8-[4-(1,1-Dioxido-thiomorpholin-4-ylmethyl)-phenyl]-2-(1-piperidin-4-yl-1H-pyrazol-4-yl)-quinoxaline]	73 nM	–	3.4 nM	110 nM	730 nM
Cc1cc(CN2CCS(=O)(=O)CC2)ccc1-c1cccc2ncc(-c3cnn(C4CCNCC4)c3)nc12 [Example 149, 8-[4-(1,1-Dioxido-thiomorpholin-4-ylmethyl)-2-methyl-phenyl]-2-(1-piperidin-4-yl-1H-pyrazol-4-yl)-quinoxaline]	650 nM	–	51 nM	900 nM	9560 nM
c1cc(-c2ccc(CN3CCOCC3)cc2)c2nc(-c3cnn(C4CCNCC4)c3)cnc2c1 [Example 150, 8-(4-Morpholin-4-ylmethyl-phenyl)-2-(1-piperidin-4-yl-1H-pyrazol-4-yl)-quinoxaline]	830 nM	–	30 nM	830 nM	4280 nM
CN1CCN(c2cccc(-c3cnc4cccc(-c5cc(F)c(CN6CCS(=O)(=O)CC6)c(F)c5)c4n3)c2)CC1 [Example 170, 8-[4-(1,1-Dioxido-thiomorpholin-4-ylmethyl)-3,5-difluoro-phenyl]-2-[3-(4-methyl-piperazin-1-yl)-phenyl]-quinoxaline]	21 nM	–	4 nM	140 nM	296 nM
